In patent US9750784B2 (priority 2013, dated 2017):
Square brackets hold non-standard residues; d marks the D form. Peptide text beside a SMILES is read from it. * marks the point of attachment. Sta = CC(C)C[C@H](N)[C@@H](O)CC(=O)O; Isovaleryl = CC(C)CC(=O)*

Key:
[1] = target: T1, cathepsin D isolated from the human liver (Homo sapiens, UniProt P07339); test: In-vitro fluorescence assay for identification of cathepsin D inhibitors; format: biochemical; conditions: pH 5.5
T1 construct: cathepsin D isolated from the human liver (Sigma-Aldrich); purchased Sigma-Aldrich; host or cells: human liver (tissue-derived)
Method: In order to identify modulators of cathepsin D activity, a continuous enzymatic test was carried out with a synthetic peptide which carries a fluorescent group (MCA=(7-methoxycoumarin-4-yl)acetyl) which is quenched by energy transfer from a Dpn (2,4 dinitrophenyl) group on the same molecule, in Greiner 384-well nb microtitre plates. Cleavage of the peptidic substrate by cathepsin D causes an increase in the fluorescence intensity. In order to determine the efficacy of substances, the time-dependent increase in the fluorescence intensity in the presence of the substance was compared with the time-dependent increase in fluorescence in the absence of substances. […] The enzyme employed was cathepsin D isolated from the human liver (Sigma-Aldrich) in a final concentration of 1.4 nM. The test was carried out in 100 mM sodium acetate buffer, 1.25% (v/v) of DMSO, 0.25% (w/v) of Chaps, pH 5.5. […] After carrying out a starting-point fluorescence measurement (excitation wavelength 340 nm/emission wavelength 450 nm) using an Envision multilabel reader (Perkin Elmer), the reaction was incubated at room temperature for 60 min. The amount of peptide fragment cleaved off during the reaction time was subsequently measured by determination of the increase in the fluorescence intensity at 450 nm (excitation wavelength 340 nm).

[2] = Cartilage penetration; format: in vitro ADME
[3] = Toxicity and genotoxicity
[4] = tested on: carrageenan-induced inflammation of the rat knee joint; test: Anti-hyperalgesic action in animals (carrageenan injected intraarticularly into rat knee joint, Hargreaves test); format: in vivo; conditions: intraarticular 30 minutes before CAR
Method: In order to induce an inflammation reaction, a carrageenan solution (CAR, 1%, 50 μl) was injected intraarticularly on one side into a rat knee joint. The uninjected side was used for control purposes. Six animals per group were used. The […] was determined by means of a micrometer screw (medial-lateral on the knee joint), and the thermal hyperalgesia was determined by means of a directed infrared light source by the Hargreaves method (Hargreaves et al. 1988) on the sole of the foot. Since the site of inflammation (knee joint) is different from the site of measurement (sole of the paw), use is made here of the term secondary thermal hyperalgesia, the mechanisms of which is of importance for the discovery of effective analgesics.
Experimental description of thermal hyperalgesia (Hargreaves test): the experimental animal is placed in a plastic chamber on a quartz sheet. Before testing, the experimental animal is firstly given about 5-15 minutes time to familiarise itself with the environment. […] Light reflected by the paw is recorded as long as the experimental animal sits still. Withdrawal of the paw interrupts this reflection, after which the infrared light source is switched off and the time from switching on to switching off is recorded. […]

[5] = Stability of pepstatin in bovine synovial fluid; format: in vitro ADME; conditions: pooled bovine synovial fluid, 37° C., initial 1 μM
Method: In order to check the stability of individual compounds, a pool of 4 different bovine synovial fluids is mixed. To this end, about 1 ml per SF are used. The mixture is prepared directly in a 5 ml glass vessel in order to minimise any absorption effects. The SFs are mixed thoroughly, but carefully. No air bubbles or foam should form. To this end, a vortex unit is used at the lowest speed. The compounds to be tested are tested in an initial concentration (unless requested otherwise) of 1 μM. After addition of the substance, the batch is again mixed thoroughly and carefully. For visual monitoring, all SF batches are photographed, and the pictures are filed in the eLabBio file for the corresponding experiment. The batches are incubated in the incubator for 48 h at 37° C. and 7.5% CO2.
The sampling is carried out after the pre-agreed times (unless requested otherwise, see below). 4×200 μl of the SF are removed from the mixture at each point in time and transferred directly into 0.5 ml “low-binding” Eppendorf vessels. […]
The samples are stored in “low-binding” Eppendorf vessels at −20° C. The samples are subsequently measured quantitatively. […]
The concentrations measured (ng/ml) are plotted against time in a graph (Graph Pad Prism®). The percentage stability of the substance is determined here. […]

[6] = Pharmacokinetic data after intraarticular injection; format: in vivo, Lister hooded rats; conditions: for Average joint diameter [mm]: rat knee, about 700 μg suspension intraarticular
Method: For this study (KK-Rat-12-003), 14 male Lister hooded rats were used. All rats were given a single intraarticular injection into both knee joints at time “0”. An injection consisted of 30 μl in which about 700 μg of compound were homogeneously suspended (suspension=compound in 0.5% Methocel K4M with 0.25% Tween20 in PBS). The suspension was administered via a 25 G cannula. […] At each point in time indicated in Table 2, animals were sacrificed, the knee joints were prepared (removal of skin and muscle tissue) and frozen for further processing.
The deep-frozen joints were briefly thawed, comminuted as well as possible using bone scissors, and 4 times the volume of 80% ethanol was subsequently added. The mixture was subsequently homogenised using an Ultraturrax, the extract was shaken at RT for 20 min and then stored at −20° C. for at least 30 min. The mixture was then centrifuged at 13,000 rpm for 5 min, a 10 μl aliquot of the supernatant was diluted 1:5000 with internal standard solution, transferred into a PCR plate and analysed.
20 μl of internal standard solution were added to 20 μl of plasma, 100 μl of methanol were added, and the mixture was shaken for 5 min. The extracts were then stored at −20° C. for at least 30 min and subsequently centrifuged at 13,000 rpm for 5 min. 80 μl of the supernatant were transferred into a PCR plate and analysed.
All samples were analysed with the aid of a UPLC-MS/MS system.

[7] = Pharmacokinetic data after intravenous and oral administration; format: in vivo, Wistar rats; conditions: Wistar rat
Method: The test substances were dissolved in DMSO/PEG200/water (2/60/38 v/v) with a final concentration of 0.8 mg/ml, and a dose of 0.2 mg/kg i.v. and 0.5 mg/kg orally was administered. […] The blood samples were collected in centrifuge tubes containing Li heparin and centrifuged at about 10,000 g at 4° C. for 3 min. The plasma obtained therefrom was immediately frozen at −20° C. and stored until analysis. The plasma concentrations were determined by means of a standard LC-MS/MS method. The pharmacokinetic parameters (Clp, Vss, T1/2, F) were determined via an NCA analysis.

[8] = tested on: ACLT tMx arthrosis model; test: Efficacy in vivo in arthrosis, ACLT tMx model; design: species or system rats; conditions: rat ACLT tMx, 1 mg in 30 μl intraarticular, 6 weeks, histological assessment
Method: Rats were selected as experimental animals. After shaving and disinfection, the operation area is opened by means of a medial skin cut with a length of about 1 cm. The knee joint capsule is prepared and the medial patellar ligament is exposed. After opening of the joint capsule, cutting of the medial parapatellar ligaments and lateral displacement of the patella, the anterior cruciate ligament is cut using a curved knife with a blunt end (ACLT=anterior cruciate ligament transection). The anterior and posterior ligaments holding the meniscus in place are subsequently prepared and cut and the meniscus is removed tMx (resection of the medial meniscus). After repositioning of the patella, the joint is finally rinsed with sterile saline solution in order to remove any blood coagulum that may have formed. The patella is repositioned, and the medial patellar ligament is re-fixed by means of continuous suture with sealing of the capsule. The muscles are likewise sutured. The skin is subsequently closed by means of single stitches. The operation duration is about 10 minutes. The postoperative trial duration was 6 weeks. For intraarticular injection, the animals are anaesthetised with 1.5-2% by vol. of isoflurane. […] Two sections in the region of the exposure zone were selected from each animal and assessed by two experienced people using an assessment system. […]

[9] = In vitro microdialysis in bovine synovial fluid; format: in vitro ADME; conditions: 3 mg per ml, 6 kDa membrane
Source text: Since the synovial fluid on the one hand represents a complex matrix for the analytical determination of peptides and on the other hand only the free, i.e. non-protein-bound medicament fraction is relevant for the action, the microdialysis method was employed. The eluate obtained from the microdialysis enables analysis of free medicament levels from the complex matrix of the synovial fluid. The reason for this is that a barrier membrane (microdialysis membrane) which only molecules up to a certain size is able to pass through is employed. This “pore size” determines the concentration of the medicament in the eluate besides the flow rate of the eluate and the free concentration of medicament present in the synovial fluid as driving force for material exchange.
(§1) For these investigations, microdialysis probes from CMA (reference number 000082; CMA 7; microdialysis sample 1 mm 3/pkg) fitted with a cuprophane membrane and having a pore size of 6 kDa were used. The eluate flow rate was 0.5 μl/min.
Firstly, release kinetics in bovine synovial fluid were investigated and compared with triamcinolone (Triam Injekt® 20 mg)—a medicament approved for intraarticular injection. […] 3 mg of medicament per ml of synovial fluid were employed in a glass vessel, which corresponds approximately to the concentration conditions after intraarticular injection into the knee joint.

[10] = In vivo joint microdialysis in guinea pig knee joint; design: species or system guinea pigs (Dunkin Hartley); conditions: 1 mg/joint in 50 μl as suspension, microdialysis eluates
Method: as §1

[11] = tested on: cartilage explant cultures; conditions: pH 5.5, explant cultures (mouse, cow or human); cited from earlier work
[12] = pooled synovial fluid of patients, Powell et al. Table II; cited from earlier work

T1 sequence (P07339 65-161 limits assumed): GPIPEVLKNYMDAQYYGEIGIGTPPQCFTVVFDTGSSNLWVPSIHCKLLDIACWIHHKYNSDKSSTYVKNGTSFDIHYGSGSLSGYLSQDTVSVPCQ
T1 sequence (P07339 169-412 limits assumed): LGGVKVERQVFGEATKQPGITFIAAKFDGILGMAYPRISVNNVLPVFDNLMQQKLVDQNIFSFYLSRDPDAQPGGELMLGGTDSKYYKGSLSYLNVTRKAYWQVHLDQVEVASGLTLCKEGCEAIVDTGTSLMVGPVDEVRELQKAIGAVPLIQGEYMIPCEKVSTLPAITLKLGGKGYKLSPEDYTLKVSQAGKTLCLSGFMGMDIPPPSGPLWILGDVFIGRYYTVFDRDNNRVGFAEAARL

For `CC(C)CC(=O)N[C@H](C(=O)N[C@H](C(=O)N[C@@H](CC(C)C)[C@@H](O)CC(=O)N[C@@H](C)C(=O)N[C@@H](CC(C)C)[C@@H](O)CC(=O)O)C(C)C)C(C)C` [Pepstatin, (3S,4S)-3-hydroxy-4-[(S)-2-((3S,4S)-3-hydroxy-6-methyl-4-{(S)-3-methyl-2-[(S)-3-methyl-2-(3-methyl-butyrylamino)butyrylamino]butyrylamino}heptanoylamino)-propionylamino]-6-methylheptanoic acid] (Isovaleryl-VV[Sta]A[Sta]-OH), the “inhibition of cathepsin D (in words)” value [1] was “nanomolar range”, the cartilage penetration [2] was “good” and the toxicity or genotoxicity [3] was “no measurable toxicity or genotoxicity”. The “reduction of thermal hyperalgesia” value ([4]; rat, Hargreaves test) was “able to reduce the extent of thermal hyperalgesia as a function of the dose”, the “period of stability in synovial fluid” value [5] was “at least two weeks” and the “Average joint diameter [mm]” value ([6]; 0 days after injection) was 10.08 mm. For the same compound, the “Average joint diameter [mm]” value ([6]; 1 day after injection) was 10.88 mm, the “Average joint diameter [mm]” value ([6]; 2 days after injection) was 10.50 mm and the “Average joint diameter [mm]” value ([6]; 4 days after injection) was 10.12 mm. For the same compound, the “Average joint diameter [mm]” value ([6]; 7 days after injection) was 10.35 mm, the “Average joint diameter [mm]” value ([6]; 9 days after injection) was 10.14 mm and the “Average joint diameter [mm]” value ([6]; 11 days after injection) was 10.37 mm. The “Average joint diameter [mm]” value ([6]; 13 days after injection) was 10.24 mm, the “Average joint diameter [mm]” value ([6]; 15 days after injection) was 10.45 mm and the “Average joint diameter [mm]” value ([6]; 20 days after injection) was 10.18 mm. For the same compound, the “Average joint diameter [mm]” value ([6]; 27 days after injection) was 10.50 mm, the systemic exposure ([6]; rat, intraarticular administration of a suspension) was “very low” and the “time after administration up to which detectable in the plasma” value ([6]; rat, intraarticular suspension, very low concentration) was “up to 28 days”. For the same compound, the “changes of in-life parameters (body weight, knee swelling, relieving postures)” value ([6]; rat, single intraarticular injection of about 700 μg suspension into both knee joints) was “No peculiarities”, the “plasma concentrations after oral administration” value ([7]; 0.5 mg/kg orally) was “below the detection limit” and the clearance ([7]; i.v. 0.2 mg/kg) was greater than 100 % liver blood flow. The distribution volume ([7]; i.v. 0.2 mg/kg) was “average”, the half-life ([7]; male, plasma, iv, i.v. 0.2 mg/kg) was roughly 8.4 min and the “efficacy in vivo in arthrosis” value [8] was “significant efficacy”. For the same compound, the “levels of unbound medicament in microdialysis eluate” value [9] was “very high levels”, the “time after intraarticular injection up to which significant levels are detectable in the joint” value [10] was “up to 14 days” and the “inhibition of autodigestion of the cartilage” value [11] was “inhibited virtually completely”.

For `C[C@]12C=CC(=O)C=C1CC[C@H]1[C@@H]3C[C@@H](O)[C@](O)(C(=O)CO)[C@@]3(C)C[C@H](O)[C@@]12F` [TAC, Triamcinolone, reference compound], the “reduction of CAR-induced swelling” value ([4]; rat knee joint, TAC 10 μg/joint) was “capable of reducing”.

In the case of `CC(C)c1nc(CN(C)C(=O)N[C@H](C(=O)N[C@@H](Cc2ccccc2)C[C@H](O)[C@H](Cc2ccccc2)NC(=O)OCc2cncs2)C(C)C)cs1` [ritonavir, reference compound], the “inhibition of autodigestion of the cartilage” value [11] is listed as “inhibited virtually completely”.

For pertussis toxin, the “half life in synovial fluid” value [12] is given as “barely two days”.
